Experimental data reported in patent US10364256B2 (GlaxoSmithKline Intellectual Property Development Limited, priority 2015, dated 2019).

Assays:
[1] = system: NQO1 specific enzyme activity in BEAS-2B cells (marker for NRF2 activation); assay: BEAS-2B NQO1 MTT Assay; format: cell-based; conditions: Homo sapiens, compound incubated 48 hours, read-out: EC50 (NQO1 specific enzyme activity induction)
Summary of the method: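 NQO1 specific activity induction is derived from the rate of MTT reduction (ΔOD/min, 570 nm, 30 min kinetic read) in crude lysates of BEAS-2B cells exposed to compound for 48 h. A 3-parameter fit gives EC50, reported as pEC50; part of each lysate goes to Cell Titer Glo.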

[2] = molecular target: T1, full length Keap1 protein / full length NRF2 protein (Homo sapiens, UniProt Q14145); assay: NRF2-Keap1 TR-FRET Assay; format: binding; conditions: 25 nM Keap1-FlagHis and 50 nM biotin-NRF2 added
T1 construct: full length NRF2 protein and full length Keap1 protein (Keap1 exists a dimer) are used; His
T1 sequence (Q14145 whole entry): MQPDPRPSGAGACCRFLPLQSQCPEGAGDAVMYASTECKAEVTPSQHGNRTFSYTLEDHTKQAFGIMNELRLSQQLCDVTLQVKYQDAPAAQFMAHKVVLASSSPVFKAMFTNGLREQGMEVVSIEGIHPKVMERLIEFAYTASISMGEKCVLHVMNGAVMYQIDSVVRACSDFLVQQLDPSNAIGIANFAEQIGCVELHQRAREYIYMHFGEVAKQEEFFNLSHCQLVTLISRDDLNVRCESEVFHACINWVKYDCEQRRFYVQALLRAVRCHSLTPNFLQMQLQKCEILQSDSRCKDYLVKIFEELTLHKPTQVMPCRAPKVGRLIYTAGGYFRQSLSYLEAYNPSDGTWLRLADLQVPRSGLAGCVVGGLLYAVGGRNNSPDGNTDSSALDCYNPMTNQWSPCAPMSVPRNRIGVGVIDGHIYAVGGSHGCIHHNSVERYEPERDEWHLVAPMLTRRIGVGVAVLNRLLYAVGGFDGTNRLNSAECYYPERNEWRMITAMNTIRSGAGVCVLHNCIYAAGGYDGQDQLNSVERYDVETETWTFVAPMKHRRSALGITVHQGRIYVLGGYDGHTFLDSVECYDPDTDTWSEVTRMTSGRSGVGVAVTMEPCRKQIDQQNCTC
Summary of the method: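 Displacement of biotinylated full-length NRF2 from full-length Keap1 read by Eu/APC TR-FRET (665/615 nm) after 1 h detection at RT. Compound, 3-fold series, first incubated with Keap1 at 37 °C for 2.25 h, NRF2 then added at 4 °C for 1.25 h; pIC50 by four-parameter equation.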

SMILES | EC50 [1] | IC50 [2]
Cn1cc(C2CC2c2c(C(=O)O)cnn2-c2cccc(-c3cccc(OC4CCCCC4)c3)c2)nn1 (stereo not shown) [Example 229] | 10 to 100 nM | 100 to 1000 nM
CC(Oc1cccc(-c2cccc(-n3ncc(C(=O)O)c3C3CC3c3cn(C)nn3)c2)c1)C1CC1 (stereo not shown) [Example 231, 1-(3′-(1-Cyclopropylethoxy)-[1,1′-biphenyl]-3-yl)-5-(2-(1-methyl-1H-1,2,3-triazol-4-yl)cyclopropyl)-1H-pyrazole-4-carboxylic acid] | 100 to 1000 nM | 100 to 1000 nM
Cn1cc(C2CC2c2c(C(=O)O)cnn2-c2cccc(-c3cccc(OC4CCCN(C(=O)OC(C)(C)C)C4)c3)c2)nn1 (stereo not shown) [Example 232, 1-(3′-((1-(tert-Butoxycarbonyl)piperidin-3-yl)oxy)-[1,1′-biphenyl]-3-yl)-5-(2-(1-methyl-1H-1,2,3-triazol-4-yl)cyclopropyl)-1H-pyrazole-4-carboxylic acid] | 100 to 1000 nM | 10 to 100 nM
Cn1cc(C2CC2c2c(C(=O)O)cnn2-c2cccc(-c3cccc(CCC4CCCCC4)c3)c2)nn1 (stereo not shown) [Example 233, 1-(3′-(2-Cyclohexylethyl)-[1,1′-biphenyl]-3-yl)-5-(2-(1-methyl-1H-1,2,3-triazol-4-yl)cyclopropyl)-1H-pyrazole-4-carboxylic Acid] | 1 to 10 nM | 100 to 1000 nM
Cn1cc(C2CC2c2c(C(=O)O)cnn2-c2cccc(-c3cccc(OC4CCOCC4)c3F)c2)nn1 (stereo not shown) [Example 234, 1-(2′-Fluoro-3′-((tetrahydro-2H-pyran-4-yl)oxy)-[1,1′-biphenyl]-3-yl)-5-(2-(1-methyl-1H-1,2,3-triazol-4-yl)cyclopropyl)-1H-pyrazole-4-carboxylic Acid] | 1000 to 10000 nM | 100 to 1000 nM
CC(Oc1cccc(-c2cccc(-n3ncc(C(=O)O)c3C3CC3c3cn(C)nn3)c2)c1)c1ccccc1 (stereo not shown) [Example 235, 5-(2-(1-Methyl-1H-1,2,3-triazol-4-yl)cyclopropyl)-1-(3′-(1-phenylethoxy)-[1,1′-biphenyl]-3-yl)-1H-pyrazole-4-carboxylic Acid] | 100 to 1000 nM | 100 to 1000 nM
Cn1cc(C2CC2c2c(C(=O)O)cnn2-c2cccc(-c3cccc(C(=O)C4CCCCC4)c3)c2)nn1 (stereo not shown) [Example 243, 1-(3′-(Cyclohexanecarbonyl)-[1,1′-biphenyl]-3-yl)-5-(2-(1-methyl-1H-1,2,3-triazol-4-yl)cyclopropyl)-1H-pyrazole-4-carboxylic Acid] | 100 to 1000 nM | 100 to 1000 nM
COC(c1cccc(-c2cccc(-n3ncc(C(=O)O)c3C3CC3c3cn(C)nn3)c2)c1)C1CCCCC1 (stereo not shown) [Example 244, 1-(3′-(Cyclohexyl(methoxy)methyl)-[1,1′-biphenyl]-3-yl)-5-(2-(1-methyl-1H-1,2,3-triazol-4-yl)cyclopropyl)-1H-pyrazole-4-carboxylic acid] | 100 to 1000 nM | 100 to 1000 nM
